Among the data in patent US9145375B2, “Quinazolinone compounds” (PRANA BIOTECHNOLOGY LIMITED, priority 2008, dated 2015) are IC50 values, retold here.

Holding throughout (type): in vitro ADME
One assay addresses T1, CYP1A2 (Homo sapiens, UniProt P05177).
T1 construct: using a specific substrate approach in human liver microsomes; from tissue; host or cells: human liver microsomes
T1 sequence (P05177 1-516): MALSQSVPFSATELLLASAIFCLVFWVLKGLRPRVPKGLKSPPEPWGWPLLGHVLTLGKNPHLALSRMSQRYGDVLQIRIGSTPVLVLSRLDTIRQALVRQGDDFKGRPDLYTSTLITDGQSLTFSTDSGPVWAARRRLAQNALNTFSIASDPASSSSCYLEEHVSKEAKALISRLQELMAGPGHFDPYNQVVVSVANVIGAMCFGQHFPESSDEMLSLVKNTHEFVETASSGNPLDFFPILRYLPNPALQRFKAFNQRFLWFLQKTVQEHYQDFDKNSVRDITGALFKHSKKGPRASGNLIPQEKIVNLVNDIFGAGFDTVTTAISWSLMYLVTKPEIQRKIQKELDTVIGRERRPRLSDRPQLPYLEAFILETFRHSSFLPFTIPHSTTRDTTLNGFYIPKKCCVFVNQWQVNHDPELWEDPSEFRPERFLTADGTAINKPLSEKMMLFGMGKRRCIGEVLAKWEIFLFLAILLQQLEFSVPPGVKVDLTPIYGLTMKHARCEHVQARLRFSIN
Nature of the assay: CYP450 isoform inhibition, recombinant enzymes, analysis by LCMS: CYP1A2. Here is the method: (§1) CYP450 Isoform Inhibition
(§2) Microsomes containing individual recombinant human CYP450 enzymes (Supersomes™) were incubated in the presence of a fixed concentration of a probe substrate that forms a fluorescent metabolite upon CYP450-mediated metabolism.
(§3) A known inhibitor of each CYP450 isoform was included in each assay as a positive control and its IC50 was compared to literature values for acceptance of the assay.
(§4) The inherent fluorescence of the test compound was examined under the specific assay conditions for each isoform before and after the fluorometric assay to identify any compound-specific interference due to the parent compound or metabolic products. If the background fluorescence in these samples increased due to compound-specific interference, then the CYP450 inhibition samples were quantified using LC/MS assay.

A further assay has as its target T2, CYP2C9 (Homo sapiens, UniProt P11712).
T2 construct: using a specific substrate approach in human liver microsomes; from tissue; host or cells: human liver microsomes
Nature of the assay: CYP450 isoform inhibition, recombinant enzymes, analysis by LCMS: CYP2C9. Here is the method:
as §1, §2, §3, §4

The target in a further assay is T3, CYP2C19 (Homo sapiens, UniProt P33261).
T3 construct: using a specific substrate approach in human liver microsomes; from tissue; host or cells: human liver microsomes
Kind of assay: CYP450 isoform inhibition, recombinant enzymes, analysis by LCMS: CYP2C19. Here is the method: as §1, §2, §3, §4

A further assay deals with CYP3A4 (Homo sapiens, UniProt P08684). Kind of assay: CYP450 isoform inhibition, recombinant enzymes, analysis by LCMS: CYP3A4. The arrangement: purchased. Here is the method:
as §1, §2, §3, §4

T3 sequence (P33261 whole entry): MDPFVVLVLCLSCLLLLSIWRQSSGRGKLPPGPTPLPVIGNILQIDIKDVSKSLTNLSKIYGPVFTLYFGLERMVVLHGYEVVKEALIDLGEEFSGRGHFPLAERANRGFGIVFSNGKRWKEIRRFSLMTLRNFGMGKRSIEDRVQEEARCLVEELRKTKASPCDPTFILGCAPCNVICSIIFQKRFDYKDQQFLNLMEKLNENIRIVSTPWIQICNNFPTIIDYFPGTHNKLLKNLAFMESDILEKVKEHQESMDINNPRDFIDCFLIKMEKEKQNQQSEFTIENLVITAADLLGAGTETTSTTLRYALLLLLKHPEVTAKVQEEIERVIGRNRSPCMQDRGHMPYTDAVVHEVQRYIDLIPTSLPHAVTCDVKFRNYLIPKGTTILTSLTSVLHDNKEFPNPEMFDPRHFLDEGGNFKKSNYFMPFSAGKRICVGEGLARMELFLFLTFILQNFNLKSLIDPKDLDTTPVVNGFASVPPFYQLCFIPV
CYP3A4, sequence (P08684 whole entry, canonical isoform): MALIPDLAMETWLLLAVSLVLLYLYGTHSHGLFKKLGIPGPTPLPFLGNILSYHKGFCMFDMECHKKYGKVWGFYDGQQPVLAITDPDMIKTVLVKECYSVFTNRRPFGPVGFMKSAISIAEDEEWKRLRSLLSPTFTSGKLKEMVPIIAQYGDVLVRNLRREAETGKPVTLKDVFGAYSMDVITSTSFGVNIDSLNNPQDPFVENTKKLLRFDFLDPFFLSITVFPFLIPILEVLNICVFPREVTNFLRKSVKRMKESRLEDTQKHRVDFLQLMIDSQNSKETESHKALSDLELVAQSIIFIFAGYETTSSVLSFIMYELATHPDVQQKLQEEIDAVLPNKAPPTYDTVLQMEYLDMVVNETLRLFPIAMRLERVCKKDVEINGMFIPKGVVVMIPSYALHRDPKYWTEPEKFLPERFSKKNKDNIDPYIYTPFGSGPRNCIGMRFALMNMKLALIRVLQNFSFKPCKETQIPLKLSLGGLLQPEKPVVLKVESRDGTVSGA
T2 sequence (P11712 whole entry): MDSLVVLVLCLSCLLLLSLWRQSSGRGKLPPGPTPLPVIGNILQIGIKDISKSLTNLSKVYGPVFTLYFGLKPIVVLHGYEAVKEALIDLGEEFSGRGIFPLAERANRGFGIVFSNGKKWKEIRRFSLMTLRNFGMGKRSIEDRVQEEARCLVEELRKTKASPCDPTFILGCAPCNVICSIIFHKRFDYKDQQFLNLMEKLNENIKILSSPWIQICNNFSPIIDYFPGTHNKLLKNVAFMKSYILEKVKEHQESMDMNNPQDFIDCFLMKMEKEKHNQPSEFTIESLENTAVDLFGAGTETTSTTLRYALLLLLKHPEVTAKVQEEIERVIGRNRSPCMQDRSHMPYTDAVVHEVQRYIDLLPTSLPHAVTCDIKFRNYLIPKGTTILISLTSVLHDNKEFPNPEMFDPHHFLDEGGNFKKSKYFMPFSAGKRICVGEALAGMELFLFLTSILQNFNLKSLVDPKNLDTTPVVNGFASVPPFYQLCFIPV

One may read the IC50 as the concentration that inhibits the measured activity by half. `CNCc1nc2c(O)c(Cl)cc(Cl)c2c(=O)n1C` [Compound F4161]: the half-inhibitory concentration (IC50) on CYP1A2 is 25.7 µM; on CYP2C9, over 40 µM; on CYP2C19, over 40 µM; at CYP3A4, 13.8 µM.
